Experiments:
Assay type in all cases: in vivo
[1] = system: ducksalad (Heteranthera limosa); assay: Test B flooded paddy test, ducksalad; settings: 250 g ai/ha, Flood; visually evaluated after 10 to 14 days
How it was run: (§1)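 Plants grown to the 2-leaf stage were flooded to 3 cm above the soil, and test compounds were applied directly into the paddy water, which was held at that depth throughout. After 10 to 14 days in a greenhouse, injury was visually rated against controls on a 0–100 scale (0 no effect, 100 complete control).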

[2] = system: rice (Oryza sativa); assay: Test B flooded paddy test, rice; settings: 250 g ai/ha, Flood; visually evaluated after 10 to 14 days
How it was run: as §1

[3] = system: goosegrass (Eleusine indica); assay: Test A preemergence, goosegrass; settings: 0 to 100 scale, 10 days
From the text: (§2) Seeds of plant species selected from barnyardgrass (Echinochloa crus-galli), blackgrass (Alopecurus myosuroides), corn (Zea mays), foxtail, giant (giant foxtail, Setaria faberi), foxtail, green (green foxtail, Setaria viridis), goosegrass (Eleusine indica), kochia (Bassia scoparia), oat, wild (wild oat, Avena fatua), palmer amaranth (pigweed, palmer, Amaranthus palmeri), redroot pigweed (Amaranthus retroflexus), ragweed (common ragweed, Ambrosia artemisiifolia), ryegrass, Italian (Italian ryegrass, Lolium multiflorum), and soybean (Glycine max) were planted into a blend of loam soil and sand and treated preemergence with a directed soil spray using test chemicals formulated in a non-phytotoxic solvent mixture which included a surfactant.
(§3) At the same time, plants selected from these crop and weed species and also wheat (Triticum aestivum), galium (catchweed bedstraw, Galium aparine) and horseweed (Erigeron canadensis) were planted in pots containing the same blend of loam soil and sand and treated with postemergence applications of test chemicals formulated in the same manner. Plants ranged in height from 2 to 10 cm and were in the one- to two-leaf stage for the postemergence treatment. Treated plants and untreated controls were maintained in a greenhouse for 10 days, after which time all treated plants were compared to untreated controls and visually evaluated for injury. Plant response ratings, summarized in Table A, are based on a 0 to 100 scale where 0 is no effect and 100 is complete control. A dash (-) response means no test result.

[4] = system: horseweed (Erigeron canadensis); assay: Test A postemergence, horseweed; settings: 10 days
From the text: as §2, §3

[5] = system: ryegrass, Italian (Italian ryegrass, Lolium multiflorum); assay: Test A preemergence, ryegrass, Italian; settings: 0 to 100 scale, 10 days
How it was run: (§4)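 Test chemicals, formulated in a non-phytotoxic solvent mixture with surfactant, are applied either as a directed preemergence soil spray or postemergence to seedlings at the one- to two-leaf stage. Injury is scored visually after 10 days, 0 = no effect to 100 = complete control.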

[6] = system: blackgrass (Alopecurus myosuroides); assay: Test A postemergence, blackgrass; settings: 10 days
How it was run: as §4

[7] = system: foxtail, giant (giant foxtail, Setaria faberi); assay: Test A postemergence, foxtail, giant; settings: 10 days
How it was run: as §4

[8] = system: palmer amaranth (pigweed, palmer, Amaranthus palmeri); assay: Test A postemergence, palmer amaranth; settings: 10 days
From the text: as §2, §3

[9] = system: foxtail, giant (giant foxtail, Setaria faberi); assay: Test A preemergence, foxtail, giant; settings: 0 to 100 scale, 10 days
How it was run: as §4

[10] = system: wheat (Triticum aestivum); assay: Test A preemergence, wheat; settings: 125 g ai/ha, 0 to 100 scale, 10 days
[11] = system: galium (catchweed bedstraw, Galium aparine); assay: Test A postemergence, galium; settings: 10 days
How it was run: as §4

[12] = system: palmer amaranth (pigweed, palmer, Amaranthus palmeri); assay: Test A preemergence, palmer amaranth; settings: 0 to 100 scale, 10 days
From the text: as §2, §3

[13] = system: corn (Zea mays); assay: Test A postemergence, corn; settings: 10 days
How it was run: as §4

[14] = system: soybean (Glycine max); assay: Test A preemergence, soybean; settings: 0 to 100 scale, 10 days
From the text: as §2, §3

[15] = system: wheat (Triticum aestivum); assay: Test A postemergence, wheat; settings: 10 days
How it was run: as §4

[16] = system: ragweed (common ragweed, Ambrosia artemisiifolia); assay: Test A postemergence, ragweed; settings: 10 days
How it was run: as §4

[17] = system: barnyardgrass (Echinochloa crus-galli); assay: Test B flooded paddy test, barnyardgrass; settings: 250 g ai/ha, Flood; visually evaluated after 10 to 14 days
How it was run: as §1

[18] = system: oat, wild (wild oat, Avena fatua); assay: Test A preemergence, oat, wild; settings: 0 to 100 scale, 10 days
From the text: as §2, §3

[19] = system: kochia (Bassia scoparia); assay: Test A preemergence, kochia; settings: 0 to 100 scale, 10 days
How it was run: as §4

[20] = system: ragweed (common ragweed, Ambrosia artemisiifolia); assay: Test A preemergence, ragweed; settings: 0 to 100 scale, 10 days
How it was run: as §4

[21] = system: ryegrass, Italian (Italian ryegrass, Lolium multiflorum); assay: Test A postemergence, ryegrass, Italian; settings: 10 days
How it was run: as §4

[22] = system: corn (Zea mays); assay: Test A preemergence, corn; settings: 0 to 100 scale, 10 days
From the text: as §2, §3

[23] = system: blackgrass (Alopecurus myosuroides); assay: Test A preemergence, blackgrass; settings: 0 to 100 scale, 10 days
From the text: as §2, §3

[24] = system: goosegrass (Eleusine indica); assay: Test A postemergence, goosegrass; settings: 10 days
From the text: as §2, §3

[25] = system: soybean (Glycine max); assay: Test A postemergence, soybean; settings: 10 days
From the text: as §2, §3

[26] = system: sedge, umbrella (small-flower umbrella sedge, Cyperus difformis); assay: Test B flooded paddy test, sedge, umbrella; settings: 250 g ai/ha, Flood; visually evaluated after 10 to 14 days
How it was run: as §1

[27] = system: oat, wild (wild oat, Avena fatua); assay: Test A postemergence, oat, wild; settings: 10 days
From the text: as §2, §3

[28] = system: kochia (Bassia scoparia); assay: Test A postemergence, kochia; settings: 10 days
How it was run: as §4

[29] = 31 g ai/ha, postemergence, 0 to 100 scale (0 no effect, 100 complete control)
[30] = Postemergence, 125 g ai/ha, 0 to 100 scale

Cc1cc(C)c2cc3ccccc3c(-c3c(OCOC(=O)C(C)(C)C)c(Cl)nn(C)c3=O)c2c1 [Compound 20]
Plant response rating, Ducksalad (0 to 100 scale where 0 is no effect and 100 is complete control) [1]: 100
Plant response rating, Rice (0 to 100 scale where 0 is no effect and 100 is complete control) [2]: 0
Plant response rating, Goosegrass ([3]; 31 g ai/ha): 0
Plant response rating, Goosegrass ([3]; 125 g ai/ha): 0
Plant response rating, Horseweed [4, 29]: 90
Plant response rating, Horseweed [4, 30]: 80
Plant response rating, Ryegrass, Italian ([5]; 31 g ai/ha): 0
Plant response rating, Ryegrass, Italian ([5]; 125 g ai/ha): 0
Plant response rating, Blackgrass [6, 29]: 0
Plant response rating, Blackgrass [6, 30]: 0
Plant response rating, Foxtail, Giant [7, 29]: 20
Plant response rating, Foxtail, Giant [7, 30]: 30
Plant response rating, Pigweed, Palmer [8, 29]: 50
Plant response rating, Pigweed, Palmer [8, 30]: 50
Plant response rating, Foxtail, Giant ([9]; 31 g ai/ha): 0
Plant response rating, Foxtail, Giant ([9]; 125 g ai/ha): 20
Plant response rating, Wheat [10]: 0
Plant response rating, Galium [11, 29]: 50
Plant response rating, Galium [11, 30]: 50
Plant response rating, Pigweed, Palmer ([12]; 31 g ai/ha): 30
Plant response rating, Pigweed, Palmer ([12]; 125 g ai/ha): 60
Plant response rating, Corn [13, 29]: 10
Plant response rating, Corn [13, 30]: 20
Plant response rating, Soybean ([14]; 31 g ai/ha): 0
Plant response rating, Soybean ([14]; 125 g ai/ha): 0
Plant response rating, Wheat [15, 29]: 0
Plant response rating, Wheat [15, 30]: 0
Plant response rating, Ragweed [16, 29]: 70
Plant response rating, Ragweed [16, 30]: 70
Plant response rating, Barnyardgrass (0 to 100 scale where 0 is no effect and 100 is complete control) [17]: 25
Plant response rating, Oat, Wild ([18]; 31 g ai/ha): 0
Plant response rating, Oat, Wild ([18]; 125 g ai/ha): 0
Plant response rating, Kochia ([19]; 31 g ai/ha): 0
Plant response rating, Kochia ([19]; 125 g ai/ha): 0
Plant response rating, Ragweed ([20]; 31 g ai/ha): 0
Plant response rating, Ragweed ([20]; 125 g ai/ha): 50
Plant response rating, Ryegrass, Italian [21, 29]: 0
Plant response rating, Ryegrass, Italian [21, 30]: 0
Plant response rating, Corn ([22]; 31 g ai/ha): 0
Plant response rating, Corn ([22]; 125 g ai/ha): 0
Plant response rating, Blackgrass ([23]; 31 g ai/ha): 0
Plant response rating, Blackgrass ([23]; 125 g ai/ha): 10
Plant response rating, Goosegrass [24, 29]: 30
Plant response rating, Goosegrass [24, 30]: 30
Plant response rating, Soybean [25, 29]: 0
Plant response rating, Soybean [25, 30]: 0
Plant response rating, Sedge, Umbrella (0 to 100 scale where 0 is no effect and 100 is complete control) [26]: 90
Plant response rating, Oat, Wild [27, 29]: 0
Plant response rating, Oat, Wild [27, 30]: 0
Plant response rating, Kochia [28, 29]: 40
Plant response rating, Kochia [28, 30]: 60

Cc1ccc2cc3ccc(F)cc3c(-c3c(OCOC(=O)C(C)(C)C)c(C)nn(C)c3=O)c2c1 [Compound 21]
Plant response rating, Ducksalad (0 to 100 scale where 0 is no effect and 100 is complete control) [1]: 100
Plant response rating, Rice (0 to 100 scale where 0 is no effect and 100 is complete control) [2]: 60
Plant response rating, Goosegrass ([3]; 31 g ai/ha): 40
Plant response rating, Goosegrass ([3]; 125 g ai/ha): 60
Plant response rating, Horseweed [4, 29]: 100
Plant response rating, Horseweed [4, 30]: 100
Plant response rating, Ryegrass, Italian ([5]; 31 g ai/ha): 40
Plant response rating, Ryegrass, Italian ([5]; 125 g ai/ha): 90
Plant response rating, Blackgrass [6, 29]: 20
Plant response rating, Blackgrass [6, 30]: 20
Plant response rating, Foxtail, Giant [7, 29]: 90
Plant response rating, Foxtail, Giant [7, 30]: 100
Plant response rating, Pigweed, Palmer [8, 29]: 100
Plant response rating, Pigweed, Palmer [8, 30]: 100
Plant response rating, Foxtail, Giant ([9]; 31 g ai/ha): 80
Plant response rating, Foxtail, Giant ([9]; 125 g ai/ha): 100
Plant response rating, Wheat [10]: 0
Plant response rating, Galium [11, 29]: 100
Plant response rating, Galium [11, 30]: 100
Plant response rating, Pigweed, Palmer ([12]; 31 g ai/ha): 100
Plant response rating, Pigweed, Palmer ([12]; 125 g ai/ha): 100
Plant response rating, Corn [13, 29]: 30
Plant response rating, Corn [13, 30]: 40
Plant response rating, Soybean ([14]; 31 g ai/ha): 0
Plant response rating, Soybean ([14]; 125 g ai/ha): 0
Plant response rating, Wheat [15, 29]: 0
Plant response rating, Wheat [15, 30]: 0
Plant response rating, Ragweed [16, 29]: 100
Plant response rating, Ragweed [16, 30]: 100
Plant response rating, Barnyardgrass (0 to 100 scale where 0 is no effect and 100 is complete control) [17]: 98
Plant response rating, Oat, Wild ([18]; 31 g ai/ha): 0
Plant response rating, Oat, Wild ([18]; 125 g ai/ha): 40
Plant response rating, Kochia ([19]; 31 g ai/ha): 100
Plant response rating, Kochia ([19]; 125 g ai/ha): 100
Plant response rating, Ragweed ([20]; 31 g ai/ha): 50
Plant response rating, Ragweed ([20]; 125 g ai/ha): 90
Plant response rating, Ryegrass, Italian [21, 29]: 80
Plant response rating, Ryegrass, Italian [21, 30]: 100
Plant response rating, Corn ([22]; 31 g ai/ha): 0
Plant response rating, Corn ([22]; 125 g ai/ha): 0
Plant response rating, Blackgrass ([23]; 31 g ai/ha): 0
Plant response rating, Blackgrass ([23]; 125 g ai/ha): 40
Plant response rating, Goosegrass [24, 29]: 20
Plant response rating, Goosegrass [24, 30]: 30
Plant response rating, Soybean [25, 29]: 100
Plant response rating, Soybean [25, 30]: 100
Plant response rating, Sedge, Umbrella (0 to 100 scale where 0 is no effect and 100 is complete control) [26]: 100
Plant response rating, Oat, Wild [27, 29]: 10
Plant response rating, Oat, Wild [27, 30]: 40
Plant response rating, Kochia [28, 29]: 90
Plant response rating, Kochia [28, 30]: 100
